From patent US11225465B2, “Albicidin derivatives, their use and synthesis” (TECHNISCHE UNIVERSITÄT BERLIN, priority 2017, dated 2022)
≈ marks a conversion by molar mass, not a printed value.

What was measured:
Assay in all cases: Microdilution assay, MIC
Assay type in all cases: cell-based
Bacillus subtilis DSM10 = details: DSM10, 20 h, read-out: MIC B. subtilis DSM10
Description: (§1) The tests were performed using the micro dilution method.
(§2) The determination of MIC values was performed according to the ninth edition of the Approved Standard M07-A9 (CLSI. Methods for Dilution Antimicrobial Susceptibility Tests for Bacteria That Grow Aerobically; Approved Standard—Ninth Edition. CLSI document M07-A9. Wayne, Pa.: Clinical and Laboratory Standards Institute; 2012.)
(§3) The test was carried out for four different bacterial strains (E. coli DSM 1116 [gram negative], B. subtilis DSM 10 [gram positive], M. luteus DSM 1790 [gram positive], S. typhimurium TA100 [gram negative]). 20 μL of cryo stock of each strain were inoculated in 20 mL of LB media (Lysogeny broth: 10 g/L peptone, 5 g/L yeast extract, 5 g/L NaCl) followed by incubation over night at 37° C., 200 rpm. The test inoculum was adjusted by the 0.5 McFarland Standard (OD625 from 0.08 to 0.1). Within 15 min of preparation, the adjusted inoculum suspension was diluted in MHBII media (BBL T M Mueller-Hinton Broth II, Becton, Dickinson and Company, N.J./USA) so that each well contained approximately 5×10^5 CFU/mL in a final volume of 100 μL. 95 μL of the inoculum were applied per well and 5 μL of the (diluted) antibiotic substance were added.
(§4) Previously the dry antibiotic compounds were dissolved in DMSO (100%) with a concentration of 2560 μg/mL and the resulting stock solutions were further diluted in DMSO (100%). 5 μL of each antibiotic dilution were applied to the microdilution tray to reach final concentrations of 64 μg/mL to 0.008 μg/mL. One row of each well plate was left as a growth control without antibiotic substances and another row of the microdilution tray was used as sterility control (only MHB II-media). The antimicrobial effect of the solvent (DMSO) was tested by adding 5 μL DMSO to several wells without antibiotics.
(§5) Purity check and cell titer control were performed according to International Standard M07-A9 on Mueller-Hinton II Agar (Mueller Hinton II Broth, 15 g/L agar-agar).
(§6) Both microdilution trays and agar plates were incubated at 37° C. for 20 h and subsequently analyzed visually.

E. coli DSM 1116 = details: Escherichia coli, DSM1116, 20 h, read-out: MIC E. coli DSM1116
Description: as §1, §2, §3, §4, §5, §6

[1] = tested on: Micrococcus luteus DSM1790; details: DSM1790, 20 h, read-out: MIC M. luteus DSM1790
Description: as §1, §2, §3, §4, §5, §6

S. typhimurium TA100 = details: Salmonella enterica, 20 h, read-out: MIC S. typhimurium TA100
Description: as §1, §2, §3, §4, §5, §6

Structure (SMILES) | MIC (Bacillus subtilis DSM10) | MIC (E. coli DSM 1116) | MIC [1] | MIC (S. typhimurium TA100)
COc1c(NC(=O)c2ccc(NC(=O)c3ccc(NC(=O)[C@H](Cc4c[nH]cn4)NC(=O)c4ccc(NC(=O)/C(C)=C/c5ccc(O)cc5)cc4)cc3)c(OC)c2O)ccc(C(=O)O)c1O [Compound 1, L-His-albicidin] | 500 µg/mL (≈ 566 µM) | 63 µg/mL (≈ 71.3 µM) | 4000 µg/mL (≈ 4530 µM) | 31 µg/mL (≈ 35.1 µM)
COc1c(NC(=O)c2ccc(NC(=O)c3ccc(NC(=O)[C@H](CN(C)C)NC(=O)c4ccc(NC(=O)/C(C)=C/c5ccc(O)cc5)cc4)cc3)c(OC)c2O)ccc(C(=O)O)c1O [Compound 2, L-DMDAP-Albicidin] | 125 µg/mL (≈ 145 µM) | 125 µg/mL (≈ 145 µM) | 2000 µg/mL (≈ 2320 µM) | 31 µg/mL (≈ 36 µM)
COc1c(NC(=O)c2ccc(NC(=O)c3ccc(NC(=O)C(Cc4c[nH]nn4)NC(=O)c4ccc(NC(=O)/C(C)=C/c5ccc(O)cc5)cc4)cc3)c(OC)c2O)ccc(C(=O)O)c1O [Compound 3, L-Azahis-Albicidin] | 125 µg/mL (≈ 141 µM) | ≤ 16 µg/mL | 500 µg/mL (≈ 565 µM) | ≤ 16 µg/mL
COc1c(NC(=O)c2ccc(NC(=O)c3ccc(NC(=O)[C@@H](CN(C)C)NC(=O)c4ccc(NC(=O)/C(C)=C/c5ccc(O)cc5)cc4)cc3)c(OC)c2O)ccc(C(=O)O)c1O [Compound 16, D-DMDAP-Albicidin] | 1000 µg/mL (≈ 1160 µM) | 500 µg/mL (≈ 581 µM) | ≥ 8000 µg/mL | 250 µg/mL (≈ 290 µM)
